# Experimental data published in paper PMC10700139 (Nature, 2023).
# Where “and” joins values, the source holds several entries; their conditions need not be identical. Identical values can stand only once.
# Legend:
# [1] = Stability of isolated 9 in deuterated solvents (1H NMR, LC-MS); type: physicochemical; settings: resuspended in CDCl3 or CD3OD, 1H NMR over time
# Experimental: Also, on drying of our sample from CDCl3, we noted a colour change from yellow/brown to red. Loss of our compound was confirmed through LC–MS analysis. However, we observed that during the course of purification, a compound pertaining to an oxidation of 9 ([…]; equal to 9 + oxygen) accumulated to high concentrations. […] As such, we purified this compound using the same strategy outlined above (yield of about 3 mg) and determined a putative structure (proposed 9′) through NMR analysis. For 9′, deuterated ACN (CD3CN) was used as a solvent and spectra were collected on a Varian Inova 600 MHz NMR spectrometer at room temperature (Supplementary Figs. 12–18).
# PtCAL-1a/PtCAL-2a = target: T1, PtCAL-1a/PtCAL-2a (Phlegmariurus tetrastichus, UniProt P0DXL1+P0DXL3); assay: In vitro reactions with apoplastic PtCAL-1a/PtCAL-2a (formation of 9, decarboxylation of 3, Zn chelator); type: biochemical
# T1 construct: N-terminal signal peptide[58], which would be cleaved during processing and trafficking of these proteins; made in house; host or cells: Nicotiana benthamiana leaves (Agrobacterium transient co-expression, pEAQ-HT), concentrated apoplast extract
# T1 sequence (P0DXL1 22-280): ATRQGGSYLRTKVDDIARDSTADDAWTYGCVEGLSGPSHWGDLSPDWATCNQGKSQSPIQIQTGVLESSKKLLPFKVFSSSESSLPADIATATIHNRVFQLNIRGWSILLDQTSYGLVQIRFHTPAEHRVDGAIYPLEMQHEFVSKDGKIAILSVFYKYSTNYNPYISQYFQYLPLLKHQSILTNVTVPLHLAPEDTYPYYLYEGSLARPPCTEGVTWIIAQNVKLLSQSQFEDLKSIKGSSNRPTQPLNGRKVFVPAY
# T1 sequence (P0DXL3 24-284): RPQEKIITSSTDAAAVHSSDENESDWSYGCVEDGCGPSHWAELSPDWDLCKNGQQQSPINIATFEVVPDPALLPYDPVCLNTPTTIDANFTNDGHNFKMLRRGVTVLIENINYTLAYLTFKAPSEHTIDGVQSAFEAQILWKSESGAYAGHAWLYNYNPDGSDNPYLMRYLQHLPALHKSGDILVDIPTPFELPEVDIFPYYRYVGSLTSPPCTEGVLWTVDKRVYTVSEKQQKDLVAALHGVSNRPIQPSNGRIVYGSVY
# Text: The three CAL proteins identified in this study have predicted N-terminal signal peptides, which were identified using the TargetP-2.0 server (https://services.healthtech.dtu.dk/service.php?TargetP-2.0)[58]. […] To assess this possibility, CAL genes with or without C-terminal 6xHis tags were transiently expressed in N. benthamiana, as described above. Each CAL gene was expressed individually; also, PtCAL-1a and PtCAL-2a were transiently co-expressed in the same leaf because we had found them to cofunction in Lycopodium alkaloid biosynthesis. At 4 days after Agrobacterium infiltration, apoplast protein extracts were isolated using the infiltration–centrifugation method, much as previously described. Two leaves per reaction were excised from the plant and submerged in ice-cold apoplast extraction buffer (100 mM MES, 300 mM NaCl, pH 5.5) in an open-capped 50 ml Falcon tube and these tubes were placed in a plastic vacuum chamber attached to a Welch Model 2025 vacuum pump. The chamber was brought down to full vacuum and after 2 min at this pressure, the vacuum was slowly released to allow for buffer to infiltrate the leaf apoplastic space. Buffer-infiltrated leaves were carefully removed from the Falcon tubes, blotted dry with paper towels and were then rolled into Parafilm and placed in a plungerless 5 ml plastic syringe. The syringe was placed in a 15 ml Falcon tube and this was then centrifuged at 1,000g and 4 °C for 10 min to collect apoplast extract. The resulting extract was centrifuged at 10,000g and 4 °C for 15 min to pellet any larger cellular debris and the supernatant was concentrated using an Amicon Ultra-4 Centrifugal Filter Unit (10 kDA MWCO, MilliporeSigma UFC501024). Protein concentrations were measured using the BIO-RAD Protein Assay or Bradford assay (Abcam 119216) and adjusted with apoplast extraction buffer to a final concentration between 0.5 and 1.5 mg ml^−1. Aliquots of the extracts were snap frozen in liquid nitrogen and stored at −80 °C.
# Reactions with CAL-enriched apoplast were routinely performed in low-pH potassium phosphate buffer (50 mM potassium phosphate, 100 mM NaCl, pH 5.9) at a volume of 20 µl. For PtCAL-1a/PtCAL-2a, these reactions contained approximately 1.4 µg of apoplast protein for each CAL (final concentration of 0.07 µg µl^−1). Control reactions used apoplast from leaves expressing only one CAL or with apoplast generated from GFP-expression N. benthamiana leaves. The requisite substrates for this reaction were generated through the activities of in vitro PtPIKS-1 and PtCYP782C1 enzyme reactions. […]. To generate 3 and 4 as potential substrates, 1 µg of previously purified PtPIKS-1 enzyme[23] and 150 µM 1 and 300 µM malonyl-CoA were added directly to the CAL reaction mixtures. After thorough mixing, reactions were incubated at room temperature. An alternative route for producing 3 and 4 independently of thioester intermediates was achieved by mixing stocks of 1 (10 mM in water) and 2 (10 mM in water; always prepared fresh to minimize compound decomposition) in equal proportion, followed by incubation at room temp for 1–2 h, as these two substrates can non-enzymatically condense to yield 3 (which can spontaneously decarboxylate to produce 4). A 2 µl aliquot of this mixture was then added as a component of the PtCAL-1a/PtCAL-2a enzyme reaction (20 µl total reaction volume) in addition to the PtCYP782C1 microsomal reaction mixture. After predesignated incubation times, reactions were quenched by diluting tenfold into ACN with 0.1% formic acid.
# To evaluate the potential decarboxylation of β-keto acid substrates by PtCAL-1/PtCAL-2 and PtCAL-3, only 3 or 2, respectively, were added as substrate. PtCAL-1/PtCAL-2 reactions were quenched by diluting aliquots tenfold into ACN with 0.1% formic acid and were subsequently analysed through HILIC LC–MS. PtCAL-3 reactions were quenched by mixing aliquots with an equal volume of water with 0.2% formic acid and were then analysed through C18 LC–MS. […]
smiles,measurement,setting,value
CC1CC2=NCCCC2=C(CC2CCCCN2)C1 (centres unmarked) [compound 9],stability of isolated compound,[1],relatively unstable
same,ion abundance of 9 (m/z 164.1434) over time,"PtCAL-1a/PtCAL-2a; PtCAL-1a/PtCAL-2a +3, +8, +PDCA, +Zn, 0.5 hrs (ED 4i)",127782 and 135642 and 127803
same,ion abundance of 9 (m/z 164.1434) over time,"PtCAL-1a/PtCAL-2a; PtCAL-1a/PtCAL-2a +3, +8, +PDCA, +Zn, 2 hrs (ED 4i)",473171 and 458012 and 448492
same,ion abundance of 9 (m/z 164.1434) over time,"PtCAL-1a/PtCAL-2a; PtCAL-1a/PtCAL-2a +3, +8, +PDCA, +Zn, 6 hrs (ED 4i)",1066834 and 1174532 and 1104641
same,ion abundance of 9 (m/z 164.1434) over time,"PtCAL-1a/PtCAL-2a; PtCAL-1a/PtCAL-2a +3, +8, +PDCA, +Zn, 24 hrs (ED 4i)",1783309 and 1828274 and 1979732
same,ion abundance of 9 (m/z 164.1434) over time,"PtCAL-1a/PtCAL-2a; PtCAL-1a/PtCAL-2a +3, +8, +PDCA, 0.5 hrs (ED 4i)",126896 and 128709 and 118410
same,ion abundance of 9 (m/z 164.1434) over time,"PtCAL-1a/PtCAL-2a; PtCAL-1a/PtCAL-2a +3, +8, +PDCA, 2 hrs (ED 4i)",460080 and 448051 and 514634
same,ion abundance of 9 (m/z 164.1434) over time,"PtCAL-1a/PtCAL-2a; PtCAL-1a/PtCAL-2a +3, +8, +PDCA, 6 hrs (ED 4i)",1133647 and 1079904 and 1109219
same,ion abundance of 9 (m/z 164.1434) over time,"PtCAL-1a/PtCAL-2a; PtCAL-1a/PtCAL-2a +3, +8, +PDCA, 24 hrs (ED 4i)",1692906 and 1937168 and 1863327
same,ion abundance of 9 (m/z 164.1434) over time,"PtCAL-1a/PtCAL-2a; PtCAL-1a/PtCAL-2a +3, +8, 0.17 hrs",5042 and 4513 and 5355
same,ion abundance of 9 (m/z 164.1434) over time,"PtCAL-1a/PtCAL-2a; PtCAL-1a/PtCAL-2a +3, +8, 0.5 hrs (ED 4i)",123276 and 137673 and 112913
same,ion abundance of 9 (m/z 164.1434) over time,"PtCAL-1a/PtCAL-2a; PtCAL-1a/PtCAL-2a +3, +8, 2 hrs (ED 4i)",446630 and 485400 and 412047
same,ion abundance of 9 (m/z 164.1434) over time,"PtCAL-1a/PtCAL-2a; PtCAL-1a/PtCAL-2a +3, +8, 6 hrs (ED 4i)",1143938 and 1142219 and 1013243
same,ion abundance of 9 (m/z 164.1434) over time,"PtCAL-1a/PtCAL-2a; PtCAL-1a/PtCAL-2a +3, +8, 8.00 hrs",777915 and 631565 and 1080330
same,ion abundance of 9 (m/z 164.1434) over time,"PtCAL-1a/PtCAL-2a; PtCAL-1a/PtCAL-2a +3, +8, 20.00 hrs",2280194 and 1799167 and 2350932
same,ion abundance of 9 (m/z 164.1434) over time,"PtCAL-1a/PtCAL-2a; PtCAL-1a/PtCAL-2a +3, +8, 24.00 hrs",2573277 and 1958546 and 2242168
same,ion abundance of 9 (m/z 164.1434) over time,"PtCAL-1a/PtCAL-2a; PtCAL-1a/PtCAL-2a +3, +8, 24 hrs (ED 4i)",1814580 and 1825623 and 1787378
same,ion abundance of 9 (m/z 164.1434) over time,"PtCAL-1a/PtCAL-2a; PtCAL-1a/PtCAL-2a +3, +8, +PtCAL-3, 0.17 hrs",8935 and 8139 and 7454
same,ion abundance of 9 (m/z 164.1434) over time,"PtCAL-1a/PtCAL-2a; PtCAL-1a/PtCAL-2a +3, +8, +PtCAL-3, 0.50 hrs",15312 and 11348 and 14678
same,ion abundance of 9 (m/z 164.1434) over time,"PtCAL-1a/PtCAL-2a; PtCAL-1a/PtCAL-2a +3, +8, +PtCAL-3, 2.00 hrs",132103 and 73247 and 110763
same,ion abundance of 9 (m/z 164.1434) over time,"PtCAL-1a/PtCAL-2a; PtCAL-1a/PtCAL-2a +3, +8, +PtCAL-3, 4.00 hrs",477805 and 480278 and 470081
same,ion abundance of 9 (m/z 164.1434) over time,"PtCAL-1a/PtCAL-2a; PtCAL-1a/PtCAL-2a +3, +8, +PtCAL-3, 8.00 hrs",1471863 and 934058 and 1569447
same,ion abundance of 9 (m/z 164.1434) over time,"PtCAL-1a/PtCAL-2a; PtCAL-1a/PtCAL-2a +3, +8, +PtCAL-3, 24.00 hrs",2382612 and 1957618 and 2845113
